biological target: human PDE4B1 (Homo sapiens (Human), UniProt Q07343); assay: cAMP HTRF assay to determine the activity of hPDE4B1; assay type: biochemical; details: human recombinant PDE4B1 expressed in Sf9 cells; cAMP 40 nM; N=1-2, n=2; read-out: PDE4B IC50-value
Procedure: A: Determination of the PDE4B IC50 Values with a cAMP HRTF® Assay to Determine the Activity of hPDE4B1
The inhibiting effect of the compounds on the enzyme activity of human PDE4B1 is measured by the quantification of 5′-AMP, which is formed from 3′,5′-adenosine monophosphate (cAMP). Human recombinant enzyme, expressed in Sf9 cells, and the HTRF (homogeneous time-resolved fluorescence) detection method are used in the assay.
The test compound or water (control) is mixed with the human recombinant PDE4B1 enzyme (4.8 U) in a buffer consisting of 44.4 mM tris-HCl, 5.28 mM MgCl2, 2.64 mM DTT and 0.044% Tween 20 (pH 7.8). After adding the cAMP enzyme substrate (final concentration 40 nM) the mixture is incubated for 30 minutes at room temperature. Then a fluorescence acceptor (Dye2 marked with cAMP), a fluorescence donor (anti-cAMP antibody marked with a europium cryptate) and the non-specific phosphodiesterase inhibitor IBMX (3-isobutyl-1-methylxanthine; final concentration 1 mM) are added. After 60 minutes the fluorescence transfer, which correlates with the amount of remaining cAMP, is measured with a microplate reader (Rubystar, BMG) at λex=337 nm, λem=620 nm and λem=665 nm. The enzyme activity is calculated from the quotient formed from the measured signal at 665 nm and that at 620 nm. The result is expressed as the percentage inhibition of enzyme activity of the control (without PDE4 inhibitor) (literature: N. Saldou et al., Comparison of recombinant human PDE4 isoforms: interaction with substrate and inhibitors, Cell. Signal. Vol. 10, No. 6, 427-440, 1998). The enzyme is omitted for measurement of the basal control.

Sequence of human PDE4B1 (Q07343 whole entry): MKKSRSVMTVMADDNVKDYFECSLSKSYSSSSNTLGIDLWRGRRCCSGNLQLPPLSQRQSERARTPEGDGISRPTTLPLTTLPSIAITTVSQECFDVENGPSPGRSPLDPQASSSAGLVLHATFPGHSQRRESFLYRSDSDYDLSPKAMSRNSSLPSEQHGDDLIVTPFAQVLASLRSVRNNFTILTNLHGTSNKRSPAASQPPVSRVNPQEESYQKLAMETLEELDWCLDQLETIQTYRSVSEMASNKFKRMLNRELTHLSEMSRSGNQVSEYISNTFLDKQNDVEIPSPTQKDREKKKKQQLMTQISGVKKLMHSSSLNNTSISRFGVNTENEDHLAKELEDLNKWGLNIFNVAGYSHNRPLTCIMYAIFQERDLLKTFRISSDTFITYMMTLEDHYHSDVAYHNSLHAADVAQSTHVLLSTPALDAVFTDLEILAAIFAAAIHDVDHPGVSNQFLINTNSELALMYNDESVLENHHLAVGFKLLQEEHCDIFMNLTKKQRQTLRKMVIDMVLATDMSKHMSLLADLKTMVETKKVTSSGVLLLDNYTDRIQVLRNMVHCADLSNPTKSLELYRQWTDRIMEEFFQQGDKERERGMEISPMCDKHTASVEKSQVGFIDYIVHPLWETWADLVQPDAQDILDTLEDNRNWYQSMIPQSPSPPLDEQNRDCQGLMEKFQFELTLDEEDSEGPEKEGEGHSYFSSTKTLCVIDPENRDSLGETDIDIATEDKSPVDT

SMILES	IC50 [nM]
COc1ccc(-c2nc(C)c3ccn(-c4ccc(C(=O)O)cc4)c3n2)cc1F [Compound 1, 4-(2-(3-Fluoro-4-methoxyphenyl)-4-methyl-7H-pyrrolo[2,3-d]pyrimidin-7-yl)benzoic acid]	< 1000
CCc1nc(-c2ccc(OC)c(F)c2)nc2c1ccn2-c1ccc(C(=O)O)cc1 [Compound 2, 4-(4-ethyl-2-(3-fluoro-4-methoxyphenyl)-7H-pyrrolo[2,3-d]pyrimidin-7-yl)benzoic acid]	< 1000
CCc1nc(-c2ccc(OC)c(F)c2)nc2c1ccn2-c1ccc(CC(=O)O)cc1 [Compound 4, 2,2,2-Trifluoroacetic acid compound with 2-(4-(4-ethyl-2-(3-fluoro-4-methoxyphenyl)-7H-pyrrolo[2,3-d]pyrimidin-7-yl)phenyl)acetic acid (1:1)]	< 1000
CCc1nc(-c2ccc(OC)c(F)c2)nc2c1CCN2c1ccc(C(=O)O)cc1 [Compound 6, 4-(4-ethyl-2-(3-fluoro-4-methoxyphenyl)-5H-pyrrolo[2,3-d]pyrimidin-7(6H)-yl)benzoic acid]	1000 to 10000
COc1ccc(-c2nc(C)c3c(n2)N(c2ccc(CC(=O)O)cc2)CC3)cc1F [Compound 7, 2-(4-(2-(3-Fluoro-4-methoxyphenyl)-4-methyl-5H-pyrrolo[2,3-d]pyrimidin-7(6H)-yl)phenyl)acetic acid]	< 1000
CCc1nc(-c2ccc(OC)c(F)c2)nc2c1CCN2c1ccc(CC(=O)O)cc1 [Compound 8, 2-(4-(4-Ethyl-2-(3-fluoro-4-methoxyphenyl)-5H-pyrrolo[2,3-d]pyrimidin-7(6H)-yl)phenyl)-acetic acid]	< 1000
CCc1nc(-c2ccc(OC)c(F)c2)nc2c1CCN2c1cccc(OCC(=O)N(C)C)c1 [Compound 9, 2-(3-(4-Ethyl-2-(3-fluoro-4-methoxyphenyl)-5H-pyrrolo[2,3-d]pyrimidin-7(6H)-yl)phenoxy)-N,N-dimethylacetamide]	< 1000
COc1ccc(-c2nc(C)c3c(n2)N(c2ccc(CC(=O)O)cc2)CC3C)cc1F (stereo not shown) [Compound 12, 2,2,2-Trifluoroacetic acid compound with 2-(4-(2-(3-fluoro-4-methoxyphenyl)-4,5-dimethyl-5H-pyrrolo[2,3-d]pyrimidin-7(6H)-yl)phenyl)acetic acid (1:1)]	< 1000
COc1ccc(-c2nc(C)c3ccn(-c4ccc(C(=O)O)cc4)c3n2)cc1Cl [Compound 14, 4-(2-(3-Chloro-4-methoxyphenyl)-4-methyl-7H-pyrrolo[2,3-d]pyrimidin-7-yl)benzoic acid]	< 1000
COc1ccc(-c2nc(C)c3ccn(-c4ccc(CC(=O)O)cc4)c3n2)cc1Cl [Compound 16, 2-(4-(2-(3-Chloro-4-methoxyphenyl)-4-methyl-7H-pyrrolo[2,3-d]pyrimidin-7-yl)phenyl)acetic acid]	< 1000
COc1ccc(-c2nc(C)c3c(n2)N(c2ccc(CC(=O)O)cc2)CC3)cc1Cl [Compound 20, 2-(4-(2-(3-Chloro-4-methoxyphenyl)-4-methyl-5H-pyrrolo[2,3-d]pyrimidin-7(6H)-yl)phenyl)acetic acid]	< 1000
CCc1nc(-c2ccc(OC)c(Cl)c2)nc2c1CCN2c1ccc(CC(=O)O)cc1 [Compound 21, 2-(4-(2-(3-Chloro-4-methoxyphenyl)-4-ethyl-5H-pyrrolo[2,3-d]pyrimidin-7(6H)-yl)phenyl)acetic acid]	< 1000
COc1ccc(-c2nc(C)c3c(n2)N(c2ccc(CC(=O)O)cc2)CC3C)cc1Cl (stereo not shown) [Compound 24, 2,2,2-Trifluoroacetic acid compound with 2-(4-(2-(3-chloro-4-methoxyphenyl)-4,5-dimethyl-5H-pyrrolo[2,3-d]pyrimidin-7(6H)-yl)phenyl)acetic acid (1:1)]	< 1000
Cc1nc(-c2ccc(F)c(F)c2)nc2c1ccn2-c1ccc(C(=O)O)cc1 [Compound 26, 4-(2-(3,4-Difluorophenyl)-4-methyl-7H-pyrrolo[2,3-d]pyrimidin-7-yl)benzoic acid]	< 1000
Cc1nc(-c2ccc(Cl)s2)nc2c1ccn2-c1ccc(C(=O)O)cc1 [Compound 38, 4-(2-(5-Chlorothiophen-2-yl)-4-methyl-7H-pyrrolo[2,3-d]pyrimidin-7-yl)benzoic acid]	< 1000
Cc1nc(-c2ccc(Cl)s2)nc2c1CCN2c1ccc(CC(=O)O)cc1 [Compound 39, 2,2,2-Trifluoroacetic acid compound with 2-(4-(2-(5-chlorothiophen-2-yl)-4-methyl-5H-pyrrolo[2,3-d]pyrimidin-7(6H)-yl)phenyl)acetic acid (1:1)]	< 1000

SMILES	IC50 [nM]
CCc1nc(-c2ccc(Cl)s2)nc2c1CCN2c1cccc(OCC(=O)N(C)C)c1 [Compound 40, 2-(3-(2-(5-chlorothiophen-2-yl)-4-ethyl-5H-pyrrolo[2,3-d]pyrimidin-7(6H)-yl)phenoxy)-N,N-dimethylacetamide]	< 1000
COc1ccc(-c2nc(OC)c3ccn(-c4ccc(C(=O)O)cc4)c3n2)cc1Cl [Compound 45, 4-(2-(3-chloro-4-methoxyphenyl)-4-methoxy-7H-pyrrolo[2,3-d]pyrimidin-7-yl)benzoic acid]	1000 to 10000
CCc1nc(-c2ccc(Cl)s2)nc2c1CCN2c1ccc(C(=O)O)cc1 [Compound 46, 4-(2-(5-chlorothiophen-2-yl)-4-ethyl-5H-pyrrolo[2,3-d]pyrimidin-7(6H)-yl)benzoic acid]	< 1000
CCc1nc(-c2ccc(OC)c(F)c2)nc2c1CCN2c1cccc(OCC(=O)NC2COC2)c1 [Compound 47, 2-(3-(4-ethyl-2-(3-fluoro-4-methoxyphenyl)-5H-pyrrolo[2,3-d]pyrimidin-7(6H)-yl)phenoxy)-N-(oxetan-3-yl)acetamide]	1000 to 10000
COc1ccc(-c2nc(S(C)(=O)=O)c3ccn(-c4cccc(OCC(=O)N(C)C)c4)c3n2)cc1F [Compound 50, 2-(3-(2-(3-fluoro-4-methoxyphenyl)-4-(methylsulfonyl)-7H-pyrrolo[2,3-d]pyrimidin-7-yl)phenoxy)-N,N-dimethylacetamide]	1000 to 10000
CCc1nc(-c2ccc(OC)c(F)c2)nc2c1CCN2c1cccc(OCC(=O)N(C)CC2CC2)c1 [Compound 51, N-(cyclopropylmethyl)-2-(3-(4-ethyl-2-(3-fluoro-4-methoxyphenyl)-5H-pyrrolo[2,3-d]pyrimidin-7(6H)-yl)phenoxy)-N-methylacetamide]	1000 to 10000
COc1ccc(-c2nc(SC)c3ccn(-c4ccc(CC(=O)O)cc4)c3n2)cc1F [Compound 69, 2-(4-(2-(3-fluoro-4-methoxyphenyl)-4-(methylthio)-7H-pyrrolo[2,3-d]pyrimidin-7-yl)phenyl)acetic acid]	1000 to 10000
COc1ccc(-c2nc(C3CC3)c3ccn(-c4cccc(OCC(=O)N(C)C)c4)c3n2)cc1F [Compound 76, 2-(3-(4-cyclopropyl-2-(3-fluoro-4-methoxyphenyl)-7H-pyrrolo[2,3-d]pyrimidin-7-yl)phenoxy)-N,N-dimethylacetamide]	1000 to 10000
CCc1nc(-c2ccc(OC)nc2)nc2c1ccn2-c1cccc(OCC(=O)N(C)C)c1 [Compound 77, 2-(3-(4-ethyl-2-(6-methoxypyridin-3-yl)-7H-pyrrolo[2,3-d]pyrimidin-7-yl)phenoxy)-N,N-dimethylacetamide]	1000 to 10000
COc1ccc(-c2ncc3c(n2)N(c2cccc(OCC(=O)N(C)C)c2)CC32CC2)cc1F [Compound 78, 2-(3-(2′-(3-fluoro-4-methoxyphenyl)spiro[cyclopropane-1,5′-pyrrolo[2,3-d]pyrimidin]-7′(6′H)-yl)phenoxy)-N,N-dimethylacetamide]	1000 to 10000
COc1ccc(-c2nc(C)c3c(n2)N(c2cccc(OCC(=O)N(C)C)c2)CC32CC2)cc1F [Compound 79, 2-(3-(2′-(3-fluoro-4-methoxyphenyl)-4′-methylspiro-[cyclopropane-1,5′-pyrrolo[2,3-d]pyrimidin]-7′(6′H)-yl)phenoxy)-N,N-dimethylacetamide]	1000 to 10000
CCc1nc(-c2cccnc2OC)nc2c1ccn2-c1cccc(OCC(=O)N(C)C)c1 [Compound 80, 2-(3-(4-ethyl-2-(2-methoxypyridin-3-yl)-7H-pyrrolo[2,3-d]pyrimidin-7-yl)phenoxy)-N,N-dimethylacetamide]	< 1000
CCc1nc(-c2cccc(S(C)(=O)=O)c2)nc2c1ccn2-c1cccc(OCC(=O)N(C)C)c1 [Compound 81, 2-(3-(4-ethyl-2-(3-(methylsulfonyl)phenyl)-7H-pyrrolo[2,3-d]pyrimidin-7-yl)phenoxy)-N,N-dimethylacetamide]	< 1000
CCc1nc(-c2ccncc2)nc2c1ccn2-c1cccc(OCC(=O)N(C)C)c1 [Compound 82, 2-(3-(4-ethyl-2-(pyridin-4-yl)-7H-pyrrolo[2,3-d]pyrimidin-7-yl)phenoxy)-N,N-dimethylacetamide]	< 1000
CCc1nc(-c2cccnc2)nc2c1ccn2-c1cccc(OCC(=O)N(C)C)c1 [Compound 83, 2-(3-(4-ethyl-2-(pyridin-3-yl)-7H-pyrrolo[2,3-d]pyrimidin-7-yl)phenoxy)-N,N-dimethylacetamide]	< 1000

— patent US9688683B2, “Substituted condensed pyrimidine compounds” (GRÜNENTHAL GMBH, priority 2013, dated 2017)
